We go through 3 molecules from publication PMC9050769 (European Journal of Drug Metabolism and Pharmacokinetics, 2022).

The conditions of data set [1]: cited from earlier work.
Data set [2] deals with mu (µ) opioid receptor. To be noted: higher than that of tramadol; cited from earlier work.
For data set [3] the following is noted: more potent than tramadol; cited from earlier work.
A short description of data set [4]: Observed tramadol and ODT blood concentrations. The class given is in vivo, human.
The mark [5] stands for this setting: before inclusion of CrCL covariate (base model).
Where [6] appears, read: final model (with CrCL covariate).

Where two headings read alike, the source gives them in different places.

As for `CNC(C)C1CCC(N)C(OC2C(N)CC(N)C(OC3OCC(C)(O)C(NC)C3O)C2O)O1` (stereo not drawn) [gentamicin], in data set [1], the “clearance in frail older patients compared to fit older patients” value was “reduced”.

`CN(C)C[C@H]1CCCC[C@]1(O)c1cccc(O)c1` [O-desmethyltramadol]: in data set [2], the “binding affinity to the mu (µ) opioid receptor relative to tramadol” value is 300 fold. Also, in data set [3], the “potency relative to tramadol” value is on record as 100 times. In addition, for the setting “final model”, the “BSV in CLm” value came to 21.6% and the “CLm/F, clearance of O-desmethyltramadol” value worked out at 0.143 L/h. In data set [4] (patients received 100 mg of tramadol), the ODT concentration entry was “around 100 µg/l”. For the same molecule, in data set [4] (trough samples, n = 17), the “ODT/tramadol concentration ratio at steady state, range” value is 0.08–0.82.

With `COc1cccc(C2(O)CCCCC2CN(C)C)c1` (stereo not drawn) [tramadol], under setting [5], the “BSV in CL/F” value is 78.9% and the “BSV in V2/F” value was 148%. For the same molecule, where the note is “before inclusion of ISAR covariate (base model)”, the “BSV in Q” value is listed as 4.71%. For the same molecule, where the note is “final model”, the “BSV in V1/F” value was determined as 73.8%; the BSV in kt is given as 78.5%; the “Q, inter-compartmental clearance” value is 0.0426 L/h; the “V2/F, apparent volume of distribution in peripheral compartment” value came out at 0.379 L. Further, under “final model”, the “between-subject variability (BSV) in absorption rate constant” value stood at 37.8%. Further, under setting [6], the “BSV in CL/F” value was 6.61% and the “BSV in V2/F” value is on record as 97.4%. In addition, where the note is “final model (with ISAR covariate)”, the “BSV in Q” value came out at 2.19%.
